Measured values as given in PubChem BioAssay (NCI).
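Values below derive from 48-hour exposures of cells grown in 96-well plates, with endpoints linearly interpolated between the two concentrations bracketing the appropriate inhibition level. TGI: concentration producing complete growth inhibition.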

How the values were obtained:
Assay in all cases: inhibition of tumour cell growth, NCI panel, 48 h
[1] = test system: 786-0 renal
[2] = test system: A549 NSCLC
[3] = test system: ACHN renal
[4] = test system: COLO 205 colon
[5] = test system: DU-145 prostate
[6] = test system: HCC-2998 colon
[7] = test system: HL-60(TB) leukemia
[8] = test system: HOP-62 NSCLC
[9] = test system: HT29 colon
[10] = test system: IGROV1 ovarian
[11] = test system: K-562 leukemia
[12] = test system: M14 melanoma
[13] = test system: MDA-MB-231 breast
[14] = test system: OVCAR-4 ovarian
[15] = test system: OVCAR-8 ovarian
[16] = test system: PC-3 prostate
[17] = test system: RPMI-8226 leukemia
[18] = test system: SK-MEL-5 melanoma
[19] = test system: SW-620 colon
[20] = test system: UACC-257 melanoma

SMILES	TGI [1] [µM]	TGI [2] [µM]	TGI [3] [µM]	TGI [4] [µM]	TGI [5] [µM]	TGI [6] [µM]	TGI [7] [µM]	TGI [8] [µM]	TGI [9] [µM]	TGI [10] [µM]	TGI [11] [µM]	TGI [12] [µM]	TGI [13] [µM]	TGI [14] [µM]	TGI [15] [µM]	TGI [16] [µM]	TGI [17] [µM]	TGI [18] [µM]	TGI [19] [µM]	TGI [20] [µM]
CC(=O)Oc1c(C)c2c(c3ncccc13)OC(C)C2 (stereo not drawn)	26.7	26.2	24.5	35.7	29.8	28.7	38.8	30.9	36.8	20.1	35.5	28.5	26.2	29.9	27.5	92.1	45.1	27.5	27.2	28.6
O=C(OCc1ccccc1)N(CCCCN(CCCNC(=O)C(F)(F)F)C(=O)OCc1ccccc1)CCCNC(=O)C(F)(F)F	> 100	> 100	> 100	> 100	> 100	> 100	> 100	> 100	> 100	> 100	> 100	> 100	> 100	> 100	> 100	> 100	> 100	> 100	> 100	> 100
COc1ccc(N2CN3OC(=O)N(c4ccc(OC)cc4)[C@@]3(c3ccccc3)C2)cc1	> 100	> 100	> 100	80.1	> 100	> 100	67.9	> 100	50.6	> 100	> 100	> 100	99.6	> 100	> 100	67.3	> 100	76.9	> 100	> 100
CC1OC(OC2C(OC(=O)[C@]34CCC(C)(C)C[C@H]3C3=CC[C@@H]5[C@@]6(C)CC[C@H](OC7OC(C(=O)O)C(O)C(O)C7O)C(C)(C)[C@@H]6CC[C@@]5(C)[C@]3(C)C[C@H]4O)OCC(O)C2O)C(O)C(O)C1OC1OCC(OC2OCC(O)C(O)C2O)C(O)C1O (stereo partly drawn)	23.3	15.5	15.8	3.32	23.8	3.03	18.1	27.1	11	26.5	47.8	11.5	11.9	9.31	32.3	19.3	51.5	27.2	23.1	23
CN(C)CCCN1c2ccc([N+](=O)[O-])cc2CCc2cccc([N+](=O)[O-])c21	26.5	29.5	31.5	28.6	31.2	26.3	37	27	32.5	29.7	52	28	26.1	13.9	32.3	42.8	98.7	30.2	39.5	27.6
C1=CC2C=CC(C=C1)P2c1ccccc1 (stereo not drawn)	> 100	> 100	> 100	> 100	> 100	> 100	> 100	> 100	> 100	> 100	> 100	> 100	> 100	> 100	> 100	> 100	> 100	> 100	> 100	> 100
C=C1C[C@@H]2CC[C@@]34CC5O[C@H]6C(O[C@H]7CC[C@H](CC(=O)O[C@@H]8[C@@H](C)[C@@H]9O[C@@H]%10C[C@]%11(C[C@@H]%12O[C@]%13(C[C@H](C)[C@@H]%14O[C@@H]%15CC(C(O)CO)O[C@@H]%15C[C@@H]%14O%13)C[C@H](C)[C@@H]%12O%11)O[C@@H]%10C[C@@H]9O[C@H]8CC8O[C@@H](CC[C@@H]1O2)C[C@@H](C)C8(O)CO)O[C@@H]7[C@@H]6O3)[C@H]5O4 (stereo partly drawn)	> 1	> 1	> 1	> 1	> 1	> 1	> 1	> 1	–	> 1	> 1	> 1	> 1	> 1	> 1	> 1	> 1	> 1	> 1	> 1
CO[C@]1(c2ccc([N+](=O)[O-])cc2)Oc2ccccc2C(=O)[C@@]1(Nc1ccc(C=O)cc1)OC	> 10	> 10	> 10	> 10	> 10	> 10	> 10	> 10	> 10	> 10	> 10	> 10	> 10	> 10	> 10	> 10	> 10	> 10	> 10	> 10
C/C(=C\CO)CC/C=C(\C)CNc1c(F)c(F)c(F)c(F)c1F	> 100	94.8	> 100	67.1	> 100	59.8	65.8	68	52.3	> 100	92	> 100	40.5	> 100	38	58.5	43.8	31.9	> 100	47.4
CC1=NN(c2nc(N)nc(/C(C#N)=C/c3ccccc3O)n2)C(C)(C)C1	29.1	31.5	34.5	31.5	32	36.5	65.3	38.8	42.6	45.5	> 100	36.4	40.7	34.2	61.6	31.6	36.2	28.8	–	38.5
NC(N)=Nc1ccc(-c2ccc(N=C(N)N)cc2)cc1	> 100	> 100	> 100	47	> 76.1	> 100	> 100	> 100	> 100	> 89.6	> 100	> 100	> 100	> 100	> 100	75.9	66.3	54.1	> 100	> 100
NC(=O)C(=CNC(N)=S)C(N)=O	> 100	> 100	> 100	> 100	> 100	> 100	> 100	> 100	> 100	> 100	> 100	> 100	> 100	> 100	> 100	> 100	> 100	> 100	> 100	> 100
COc1cccc2c1C(=O)C1=C(C2=O)C(O)CC(C)(C)O1 (stereo not drawn)	> 100	> 100	> 100	54	> 100	> 100	33.8	> 100	> 100	> 100	50.3	> 100	87.7	55.8	91.5	68.4	60.4	28.3	> 100	50
Cn1c2ccc([N+](=O)[O-])cc2c(=O)n1Cc1ccccc1F	> 100	> 100	> 100	> 100	> 100	> 100	> 100	> 100	> 100	> 100	> 100	> 100	> 100	> 100	> 100	> 100	> 100	> 100	> 100	> 100
CCN(CC)c1ccc2cc(C(N)=O)c(=N)oc2c1	> 100	> 100	> 100	> 100	> 100	57.2	> 100	> 100	> 100	80.7	> 100	> 100	> 100	74.1	> 100	87.6	> 100	> 100	> 100	> 100
CC(=O)c1cccc(Nc2nc3ccccc3c3occc23)c1	40	> 100	39.9	> 100	> 100	> 100	> 100	34.6	> 100	–	> 100	> 100	56.4	61.5	74.5	> 100	> 100	48.6	–	> 100
O=C1OCN(c2ccccc2)C12CCN(Cc1ccccc1)CC2	79.2	> 100	> 100	39.6	> 100	32.6	> 100	> 100	31.9	> 100	24.1	33.1	66.6	> 100	> 100	> 100	89	33.6	49.8	31
CN(Cc1cnc2nc(N)nc(N)c2n1)c1ccc(C(=O)NCCS(=O)(=O)O)cc1	> 100	> 100	> 100	> 100	> 100	> 100	> 100	> 100	> 100	> 100	> 100	> 100	> 100	> 100	> 100	> 100	> 100	> 100	> 100	> 100
Cc1nnc2n1N=C(c1ccccc1)/C(=C/c1ccc(-c3ccc(Cl)cc3)o1)S2	27.2	49.4	26.3	41.5	38.9	19.9	28.4	49.8	44.7	36.6	47.4	36.6	33	80	–	26	26.8	27.2	47.7	36.2
COc1ccccc1CCN1CCN(CCCc2ccccc2)CC1	> 100	> 100	> 100	76	> 100	> 100	> 100	> 100	> 100	> 100	> 100	76.4	> 100	> 100	> 100	> 100	> 100	45.7	> 100	> 100
COc1cc(-c2ccc(Br)[nH]2)[nH]c1C=NCC(C)C	3.27	3.62	4.19	2.48	2.9	4.67	3.9	3.39	3.54	7.09	14.2	4.28	6.64	12.8	6.28	4.39	2.67	2.87	–	5.34
Cc1ccc(N=N/C(=N/NC(=O)c2cc(Cl)ccc2O)c2ccc(N(CCC#N)CCC#N)cc2C)cc1	> 100	> 100	70.4	44.2	> 100	68.5	> 100	> 100	60.6	> 100	> 100	> 100	> 100	97.7	54.7	> 100	> 100	36.4	–	47.2
